pIC50: −log10 of the molar value.
Target: T1, RfaE (Escherichia coli, UniProt P76658)
T1 construct: made in house; host or cells: E. coli
Assay: Inhibition of the enzymatic activity of RfaE (HTS luminescent or fluorescent biochemical assay)
Set-up: species or system E. coli
Conditions: dose-response, FIG. 1
Method: According to another object, the invention also relates to a method for assessing RfaE enzymatic activity. • Said method comprises • pre-incubating at room temperature • DMSO or inhibitor to be tested dissolved in DMSO and RfaE in an assay buffer • and either • adding a reaction mixture composed of RfaE, β-heptose-7-phosphate, ATP, in the assay buffer and incubating at room temperature • adding a revelation mixture composed of luciferase, D-luciferin and N-acetylcysteamine • measuring the luminescence intensity and converting into inhibition % to further calculate the IC50 values; • or • adding a reaction mixture composed of RfaE, β-heptose-7-phosphate ATP, pyruvate kinase, phosphoenolpyruvate, lactate dehydrogenase and NADH in said assay buffer, • measuring the fluorescence intensity of NADH kinetically and deriving inhibition % from fitted initial velocities, to further calculate the IC50 values.
Inhibition of the Enzymatic Activity of RfaE
RfaE is a kinase belonging to the ribokinase family. It catalyses an essential step of the biosynthesis of L-ADP-Heptose, namely the phosphorylation of β-heptose-7-phosphate (H7P) into β-heptose-1,7-bisphosphate (H17P). RfaE assays as described in the literature are essentially based on direct HLPC detection of the substrates H7P and ATP, and of the products H17P and ADP, raising obvious limitations for HTS applications. The assays described below are based either on luminescent ATP detection, or on fluorescent ADP detection. They are easily amenable to miniaturized formats and fast readouts as required by HTS.
The assay buffer “AB” contains 50 mM Hepes pH7.5, 1 mM MnCl2, 25 mM KCl, 0.012% Triton-X100 and 1 mM DTT. The following components are added in a white polystyrene Costar plate up to a final volume of 31 μL: 3 μL DMSO, or inhibitor dissolved in DMSO and 28 μL RfaE in AB. After 30 min of pre-incubation at room temperature, 29 μL of Substrates mix in AB are added in each well to a final volume of 60 μL. This reaction mixture is then composed of 3 nM RfaE (produced in house from E. coli), 0.2 μM β-heptose-7-phosphate (in house synthesis) and 0.2 μM ATP (Sigma) in assay buffer. After 40 min of incubation at room temperature, 200 μL of the revelation mix are added to a final volume of 260 μL, including the following constituents at the respective final concentrations: 2 nM luciferase (Sigma), 30 μM D-luciferin (Sigma), 100 μM N-acetylcysteamine (Aldrich). Luminescence intensity is immediately measured on an Analyst-HT (Molecular Devices) and converted into inhibition percentages. For IC50 determinations, the inhibitor is tested at 6 to 10 different concentrations, and the related inhibitions are fitted to a classical langmuir equilibrium model using XLFIT (IDBS).
The assay buffer “AB” contains 50 mM Hepes pH7.5, 1 mM MnCl2, 25 mM KCl, 0.012% Triton-X100 and 1 mM DTT. The following components are added in a black polystyrene Costar plate up to a final volume of 50 μL: 5 μL DMSO, or inhibitor dissolved in DMSO and 45 μL RfaE in AB. After 30 min of pre-incubation at room temperature, 50 μL of Substrates-revelation mix in AB are added in each well to a final volume of 100 μL. This reaction mixture is then composed of 66 μM RfaE (produced in house from E. coli), 1 μM β-heptose-7-phosphate (in house synthesis), 50 μM ATP (Sigma), 5 u/mL Pyruvate Kinase (Sigma), 50 μM phosphoenolpyruvate (Sigma), 5 u/mL Lactate dehydrogenase (Sigma) and 2.5 μM NADH (Sigma) in assay buffer. Fluorescence intensity of NADH (λex=360 nm, λem=520 nm) is immediately measured kinetically by a Fluostar Optima (BMG). Inhibition percentages are derived from fitted initial velocities. For IC50 determinations, the inhibitor is tested at 6 to 10 different concentrations, and the related inhibitions are fitted to a classical langmuir equilibrium model using XLFIT (IDBS).

T1 sequence (P76658 whole entry): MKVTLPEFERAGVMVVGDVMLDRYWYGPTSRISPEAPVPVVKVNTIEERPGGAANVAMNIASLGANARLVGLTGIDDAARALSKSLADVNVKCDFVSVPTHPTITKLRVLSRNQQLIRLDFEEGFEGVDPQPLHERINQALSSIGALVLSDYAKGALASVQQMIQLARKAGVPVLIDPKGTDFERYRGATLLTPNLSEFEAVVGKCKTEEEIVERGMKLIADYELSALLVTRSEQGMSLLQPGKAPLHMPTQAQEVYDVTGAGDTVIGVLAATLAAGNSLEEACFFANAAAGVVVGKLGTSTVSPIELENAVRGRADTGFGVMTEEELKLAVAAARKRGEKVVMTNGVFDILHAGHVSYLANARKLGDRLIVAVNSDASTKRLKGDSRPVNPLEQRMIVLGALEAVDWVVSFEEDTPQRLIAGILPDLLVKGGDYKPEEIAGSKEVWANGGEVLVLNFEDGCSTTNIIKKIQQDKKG

Row | SMILES | Inhibition of RfaE biochemical activity (FIG. 1)
1 | Cc1oc(-c2cccc([N+](=O)[O-])c2)nc1C(=O)N(CC(=O)O)Cc1ccccn1 [Example XXIII, [{[5-methyl-2-(3-nitrophenyl)-1,3-oxazol-4-yl]carbonyl}(pyridin-2-ylmethyl)amino]acetic Acid] | Dose Dependent Inhibition

Same assay, conditions: inhibitor tested at 6 to 10 concentrations; 30 min pre-incubation at room temperature

Row | SMILES | pIC50
2 | Cc1oc(-c2cccc(NC(=O)C3CC3)c2)nc1C(=O)N(CC(=O)O)Cc1ccccn1 [XXVIII, {[(2-{3-[(cyclopropylcarbonyl)amino]phenyl}-5-methyl-1,3-oxazol-4-yl)carbonyl](pyridin-2-ylmethyl)amino}acetic Acid] | 4.85
3 | Cc1oc(-c2ccc(O)cc2)nc1C(=O)N(CC(=O)O)Cc1ccccn1 [XXIV, [{[2-(4-hydroxyphenyl)-5-methyl-1,3-oxazol-4-yl]carbonyl}(pyridin-2-ylmethyl)amino]acetic Acid] | 4.41
4 | Cc1oc(-c2cccc(C(F)(F)F)c2)nc1C(=O)N(CC(=O)O)Cc1ccccn1 [XIV, [({5-methyl-2-[3-(trifluoromethyl)phenyl]-1,3-oxazol-4-yl}carbonyl)(pyridin-2-ylmethyl)amino]acetic Acid] | 4.46
5 | Cc1nc(-c2ccccc2)oc1C(=O)N(CC(=O)O)Cc1ccc(-c2ccccc2F)o1 [XXXII, ([(4-methyl-2-phenyl-1,3-oxazol-5-yl)carbonyl]{[5-(2-fluorophenyl)-2-furyl]methyl}amino)acetic Acid] | 3.90
6 | COc1cccc(-c2nc(C)c(C(=O)N(CC(=O)O)Cc3nc4cc(OC)ccc4s3)o2)c1 [XXX, ((5-methoxy-1,3-benzothiazol-2-ylmethyl){[2-(3-methoxyphenyl)-4-methyl-1,3-oxazol-5-yl]carbonyl}amino)acetic Acid] | 5.96
7 | COc1cccc(-c2nc(C)c(C(=O)N(CC(=O)O)Cc3nc4ccccc4s3)o2)c1 [XXIX, ((1,3-benzothiazol-2-ylmethyl){[2-(3-methoxyphenyl)-4-methyl-1,3-oxazol-5-yl]carbonyl}amino)acetic Acid] | 6.62
8 | Cc1oc(-c2ccccc2)nc1C(=O)N(CC(=O)O)Cc1ccccn1 [XII, [[(5-methyl-2-phenyl-1,3-oxazol-4-yl)carbonyl](pyridin-2-ylmethyl)amino]acetic Acid] | 4.29
9 | CC(=O)Oc1cccc(-c2nc(C)c(C(=O)N(CC(=O)O)Cc3ccccn3)o2)c1 [IV, [({2-[3-(acetyloxy)phenyl]-4-methyl-1,3-oxazol-5-yl}carbonyl)(pyridin-2-ylmethyl)amino]acetic Acid] | 4.28
10 | Cc1nc(-c2ccccc2)sc1C(=O)N(CC(=O)O)Cc1ccccn1 [IX, [[(4-methyl-2-phenyl-1,3-thiazol-5-yl)carbonyl](pyridin-2-ylmethyl)amino]acetic Acid] | 4.28
11 | O=C(O)CN(Cc1ccccn1)C(=O)c1nc(-c2ccccc2)oc1COCc1ccccc1 [I, {[[5-(benzyloxy)methyl-2-phenyl-1,3-oxazol-4-yl]carbonyl](pyridin-2-ylmethyl)amino}acetic Acid] | 3.58
12 | Cc1oc(-c2cccc([N+](=O)[O-])c2)nc1C(=O)N(CC(=O)O)Cc1ccccn1 [Example XXIII, [{[5-methyl-2-(3-nitrophenyl)-1,3-oxazol-4-yl]carbonyl}(pyridin-2-ylmethyl)amino]acetic Acid] | 5.42

From patent US20100022541A1, “Chemical inhibitors of bacterial heptose synthesis, methods for their preparation and biological applications of said inhibitors” (priority 2006, published 2010)
